# Reference: patent US11173160B2 (UNIVERSITY OF PITTSBURGH—OF THE COMMONWEALTH SYSTEM OF …, priority 2019, dated 2021)
# pIC50: −log10 of the molar value. “Also recorded” adds a separate entry of the source.
# How the values were obtained:
# [1] = tested on: DIPG-13p orthotopic xenografts; assay: DIPG-13p orthotopic xenograft model; format: in vivo, mice; conditions: for survival vs vehicle: 20 mg/kg/day for 5 days, 2 days rest
# Method: All animal procedures were carried out ethically according to animal user protocols approved by Institutional Animal Care Committee (IACUC). 4-6 week-old non-obese diabetic severe combined immune deficiency male or female mice (NOD-SCID-Prkdc^scid) were injected with 1×10^5 SU-DIPG-13p cells or 1×10^5 SF8628 DIPG cells. Cells were re-suspended in 2 μl of PBS and injected into the pons/midbrain using a stereotactic frame (Stoelting) and automated cell injector (Stoelting) with cells delivered over 4 minutes. Coordinates were as follows from the Lambda suture (x=0.8 mm, y=−0.8 mm, z=−5.0 mm). […] Mice were treated for two cycles (5 days on, with two days off per cycle). Mice were sacrificed at sign of neurological duress and brains were extracted and fixed in 4% PFA.
# Also, the present disclosure used two established cell lines derived from transgenic mouse models of DIPG. Both lines are p53 null and express PDGFB, differing only in their H3.3 mutation status.
# In a second DIPG mouse model, mice were injected with 1×10^5 DIPG13p cells in the midbrain of NOD-SCID gamma mice.
# For each cycle, the compounds were administered 20 mg/kg/day for 5 days, followed with 2 days of rest period. Each mice received 2 cycles of treatment.
# [2] = biological target: MAPKAP-K2 (Homo sapiens, UniProt P49137); conditions: cited from earlier work
# [3] = biological target: CaMKVI (Homo sapiens, UniProt Q16566); conditions: cited from earlier work
# [4] = biological target: KDR (Homo sapiens, UniProt P35968); conditions: cited from earlier work
# [5] = tested on: DIPG-13p and DIPG-IV cells; assay: cell viability with TG02 and/or RT; format: cell-based, human
# [6] = biological target: PLK3 (Homo sapiens, UniProt Q9H4B4); conditions: cited from earlier work
# [7] = biological target: Aurora B (Homo sapiens, UniProt Q96GD4); conditions: cited from earlier work
# [8] = tested on: ERK5 phosphorylation in DIPG-007 and DIPG-IV cells; assay: Western blot of ERK5 phosphorylation in DIPG cells; format: cell-based, human; conditions: 50 nM
# Method: Cell pellets were lysed in PLC lysis buffer containing protease and phosphatase inhibitors (Roche Inc.). Protein lysates were quantified using the bicinchoninic acid (BCA) assay (Pierce Chemical Co., Rockford, Ill.). 30 μg of total protein lysate was loaded in 10% SDS-PAGE gels and electrophoresed. Proteins were transferred to PVDF membranes using a semi-dry transfer apparatus (Bio-Rad). Membranes were blocked for one hour and probed for various proteins overnight in 5% non-fat milk or 5% BSA in Tris Buffered Saline Solution, 0.5% Tween-20 (TBST) or Phosphate Buffered Saline Solution with 0.5% Tween-20 (PBST). Membranes were washed for 5 mins in TBST (3×) and incubated with horseradish peroxidase-conjugated antibodies specific for the primary antibody (BioRad Laboratories, Inc., CA, USA). Binding was detected using Chemiluminescence Reagent Plus (PerkinElmer Inc., MA, USA).
# [9] = biological target: PAK3 (Homo sapiens, UniProt O75914); conditions: cited from earlier work
# [10] = tested on: MYC in DIPG-IV and SF8628 cells; assay: Western blot of phospho MYC S62 and total MYC; format: cell-based, human; conditions: TG02 100 nM
# Method: FIGS. 6A-6H provide that ERK5 inhibition reduced MYC protein stability. (6A) Schematic of identifying differentially expressed phospho-proteins in DIPG-IV cells expressing ERK5 and ERK5 knockdown. (6B) Ratio of phospho:total protein changes in ERK5 knockdown versus ERK5 control DIPG-IV cells. […] (6D) Western blot of MYC in DIPG-IV cells treated with Dox and MG132 (10 uM). (6E) Immunoprecipitation of MYC and ERK5 followed by western blot of ERK5 and MYC. […] (6G) Western blot of DIPG cells re-transfected with constitutively active MYC S62D in presence of ERK5 loss. (6H) Cell doubling times of control and ERK5 knockdown DIPG cells and the effect of MYC S62D rescue. SF8628 cells (left) and DIPG-IV cells (right).
# Cell pellets were lysed in PLC lysis buffer containing protease and phosphatase inhibitors (Roche Inc.). Protein lysates were quantified using the bicinchoninic acid (BCA) assay (Pierce Chemical Co., Rockford, Ill.). 30 μg of total protein lysate was loaded in 10% SDS-PAGE gels and electrophoresed. Proteins were transferred to PVDF membranes using a semi-dry transfer apparatus (Bio-Rad). […] Binding was detected using Chemiluminescence Reagent Plus (PerkinElmer Inc., MA, USA).
# [11] = biological target: IRAK4 (Homo sapiens, UniProt Q9NWZ3); conditions: cited from earlier work
# [12] = biological target: PLK1 (Homo sapiens, UniProt P53350); conditions: cited from earlier work
# [13] = biological target: PAK2 (Homo sapiens, UniProt Q13177); conditions: cited from earlier work
# [14] = biological target: (Homo sapiens, UniProt O15264); conditions: Source Invitrogen; 10-point titration in duplicates, done once; cited from earlier work
# [15] = biological target: c-Raf (Homo sapiens, UniProt P04049); conditions: cited from earlier work
# [16] = biological target: MKK6 (Homo sapiens, UniProt P52564); conditions: cited from earlier work
# [17] = tested on: DIPG-13p and SF8628 cells; assay: cell growth and Annexin-PI apoptosis assay; format: cell-based, human
# Method: FIG. 12E provides Annexin-PI quantification of DIPG cells treated in biological triplicates with ERK5 inhibitors at 48 h from (FIGS. 12C-12D).
# Apoptosis was quantified using the Pacific Blue Annexin V Apoptosis Detection Kit with propidium iodide (BioLegend, San Diego, Calif. Cat #640926). Analysis was performed at the Flow Cytometry Core, Rangos Research Center, UPMC Children's Hospital of Pittsburgh.
# PAK3, sequence (O75914 whole entry): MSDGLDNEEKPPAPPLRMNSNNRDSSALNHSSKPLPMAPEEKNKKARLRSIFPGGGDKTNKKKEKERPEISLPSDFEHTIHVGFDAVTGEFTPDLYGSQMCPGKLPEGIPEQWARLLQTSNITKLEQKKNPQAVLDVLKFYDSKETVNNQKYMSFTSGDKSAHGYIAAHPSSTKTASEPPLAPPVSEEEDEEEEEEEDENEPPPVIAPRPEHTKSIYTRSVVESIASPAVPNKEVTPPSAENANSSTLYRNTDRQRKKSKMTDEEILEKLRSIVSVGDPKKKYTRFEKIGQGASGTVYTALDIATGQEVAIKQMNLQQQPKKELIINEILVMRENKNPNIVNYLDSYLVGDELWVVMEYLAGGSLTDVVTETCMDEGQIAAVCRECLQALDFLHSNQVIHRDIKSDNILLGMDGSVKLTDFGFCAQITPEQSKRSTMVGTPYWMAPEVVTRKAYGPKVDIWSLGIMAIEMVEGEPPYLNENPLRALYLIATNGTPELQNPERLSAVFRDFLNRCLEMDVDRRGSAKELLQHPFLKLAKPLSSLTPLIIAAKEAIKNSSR
# PLK1, sequence (P53350 whole entry, species assumed): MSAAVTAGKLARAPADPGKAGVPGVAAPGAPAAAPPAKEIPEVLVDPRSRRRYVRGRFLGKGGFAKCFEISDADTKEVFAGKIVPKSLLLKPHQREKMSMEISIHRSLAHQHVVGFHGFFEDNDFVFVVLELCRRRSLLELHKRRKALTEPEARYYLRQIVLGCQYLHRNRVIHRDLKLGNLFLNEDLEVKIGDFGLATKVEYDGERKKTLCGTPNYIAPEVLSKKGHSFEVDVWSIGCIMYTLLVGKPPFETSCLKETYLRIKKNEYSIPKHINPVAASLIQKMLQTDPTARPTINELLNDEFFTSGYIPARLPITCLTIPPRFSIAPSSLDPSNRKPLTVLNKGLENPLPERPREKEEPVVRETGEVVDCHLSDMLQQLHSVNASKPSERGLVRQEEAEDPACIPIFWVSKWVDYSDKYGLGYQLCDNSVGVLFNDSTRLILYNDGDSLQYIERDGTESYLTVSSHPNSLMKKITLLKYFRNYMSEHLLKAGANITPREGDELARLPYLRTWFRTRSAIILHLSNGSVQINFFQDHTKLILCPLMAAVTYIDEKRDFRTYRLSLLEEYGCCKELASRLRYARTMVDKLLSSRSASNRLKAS
# Aurora B, sequence (Q96GD4 whole entry): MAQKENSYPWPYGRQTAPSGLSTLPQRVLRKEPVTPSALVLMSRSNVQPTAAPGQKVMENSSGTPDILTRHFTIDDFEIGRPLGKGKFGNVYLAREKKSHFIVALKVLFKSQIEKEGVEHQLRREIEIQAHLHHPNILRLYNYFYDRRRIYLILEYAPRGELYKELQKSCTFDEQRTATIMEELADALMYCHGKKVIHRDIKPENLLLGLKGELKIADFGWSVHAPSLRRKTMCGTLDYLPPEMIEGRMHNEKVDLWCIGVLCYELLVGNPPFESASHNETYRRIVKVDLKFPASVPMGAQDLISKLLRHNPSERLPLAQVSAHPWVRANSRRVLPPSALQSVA
# IRAK4, sequence (Q9NWZ3 whole entry): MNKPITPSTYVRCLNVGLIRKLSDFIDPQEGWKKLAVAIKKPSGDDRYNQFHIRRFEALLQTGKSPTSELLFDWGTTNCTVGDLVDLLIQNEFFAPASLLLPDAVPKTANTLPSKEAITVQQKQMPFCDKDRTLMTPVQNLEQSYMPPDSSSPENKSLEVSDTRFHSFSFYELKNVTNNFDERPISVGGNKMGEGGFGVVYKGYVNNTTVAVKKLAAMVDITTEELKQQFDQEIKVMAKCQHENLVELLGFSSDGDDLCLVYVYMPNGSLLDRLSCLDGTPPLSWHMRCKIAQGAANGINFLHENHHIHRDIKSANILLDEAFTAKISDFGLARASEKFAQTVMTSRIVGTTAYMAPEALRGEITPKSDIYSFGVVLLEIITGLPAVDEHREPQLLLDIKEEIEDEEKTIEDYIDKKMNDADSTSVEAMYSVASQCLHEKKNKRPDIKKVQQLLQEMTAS
# PAK2, sequence (Q13177 whole entry): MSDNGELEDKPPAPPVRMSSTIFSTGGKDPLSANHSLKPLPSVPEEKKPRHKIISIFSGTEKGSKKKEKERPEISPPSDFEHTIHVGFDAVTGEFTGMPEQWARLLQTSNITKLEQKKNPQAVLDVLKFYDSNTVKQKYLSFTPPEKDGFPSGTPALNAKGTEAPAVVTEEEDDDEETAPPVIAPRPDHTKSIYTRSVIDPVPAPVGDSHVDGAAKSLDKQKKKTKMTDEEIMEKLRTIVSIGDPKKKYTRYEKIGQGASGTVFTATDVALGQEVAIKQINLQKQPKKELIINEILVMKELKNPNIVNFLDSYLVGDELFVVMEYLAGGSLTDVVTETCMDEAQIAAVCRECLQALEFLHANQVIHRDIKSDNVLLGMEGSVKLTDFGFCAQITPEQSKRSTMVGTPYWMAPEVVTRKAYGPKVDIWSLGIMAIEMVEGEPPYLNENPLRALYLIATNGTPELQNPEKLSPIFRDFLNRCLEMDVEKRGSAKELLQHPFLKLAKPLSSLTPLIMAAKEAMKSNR
# MKK6, sequence (P52564 whole entry): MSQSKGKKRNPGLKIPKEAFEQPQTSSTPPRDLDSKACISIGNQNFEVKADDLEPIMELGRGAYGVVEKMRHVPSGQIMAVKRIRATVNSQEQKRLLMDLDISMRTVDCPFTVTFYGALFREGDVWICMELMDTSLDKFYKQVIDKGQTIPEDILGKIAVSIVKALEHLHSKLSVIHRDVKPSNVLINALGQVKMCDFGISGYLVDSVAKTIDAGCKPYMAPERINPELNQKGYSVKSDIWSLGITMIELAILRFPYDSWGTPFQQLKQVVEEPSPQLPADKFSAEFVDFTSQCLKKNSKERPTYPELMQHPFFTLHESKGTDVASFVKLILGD
# PLK3, sequence (Q9H4B4 whole entry, species assumed): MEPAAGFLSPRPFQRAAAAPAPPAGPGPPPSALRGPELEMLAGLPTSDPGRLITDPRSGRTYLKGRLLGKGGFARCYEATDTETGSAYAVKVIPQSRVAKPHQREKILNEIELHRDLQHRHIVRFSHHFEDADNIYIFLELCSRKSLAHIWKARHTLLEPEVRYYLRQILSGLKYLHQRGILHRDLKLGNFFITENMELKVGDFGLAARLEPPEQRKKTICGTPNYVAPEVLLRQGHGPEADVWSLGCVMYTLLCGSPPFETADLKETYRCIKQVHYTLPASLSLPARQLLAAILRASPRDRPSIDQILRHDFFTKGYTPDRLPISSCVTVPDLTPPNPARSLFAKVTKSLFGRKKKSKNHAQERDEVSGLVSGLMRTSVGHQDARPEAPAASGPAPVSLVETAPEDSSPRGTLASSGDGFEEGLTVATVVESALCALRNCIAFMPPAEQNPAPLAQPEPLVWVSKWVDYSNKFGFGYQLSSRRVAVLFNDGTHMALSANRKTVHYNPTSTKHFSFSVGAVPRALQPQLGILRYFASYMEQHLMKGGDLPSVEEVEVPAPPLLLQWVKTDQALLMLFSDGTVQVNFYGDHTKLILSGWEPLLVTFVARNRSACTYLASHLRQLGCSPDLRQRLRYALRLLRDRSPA
# c-Raf, sequence (P04049 whole entry): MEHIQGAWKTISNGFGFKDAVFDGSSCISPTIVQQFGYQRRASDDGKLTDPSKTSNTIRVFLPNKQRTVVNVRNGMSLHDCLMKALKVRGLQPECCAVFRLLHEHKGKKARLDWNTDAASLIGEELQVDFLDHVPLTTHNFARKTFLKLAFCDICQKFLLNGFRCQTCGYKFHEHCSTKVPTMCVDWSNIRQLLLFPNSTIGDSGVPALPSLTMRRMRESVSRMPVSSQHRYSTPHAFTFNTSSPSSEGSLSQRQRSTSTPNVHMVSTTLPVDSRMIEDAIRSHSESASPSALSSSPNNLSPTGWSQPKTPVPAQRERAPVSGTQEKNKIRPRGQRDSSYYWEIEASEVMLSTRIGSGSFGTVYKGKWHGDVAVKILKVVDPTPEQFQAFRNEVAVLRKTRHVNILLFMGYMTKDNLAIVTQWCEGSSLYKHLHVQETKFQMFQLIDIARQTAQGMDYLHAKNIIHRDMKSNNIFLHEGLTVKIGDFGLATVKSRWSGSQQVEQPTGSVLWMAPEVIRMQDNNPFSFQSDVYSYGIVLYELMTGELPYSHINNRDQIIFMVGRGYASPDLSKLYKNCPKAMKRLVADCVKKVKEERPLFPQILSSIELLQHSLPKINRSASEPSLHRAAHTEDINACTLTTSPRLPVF
# (Homo sapiens, UniProt O15264), sequence (O15264 whole entry): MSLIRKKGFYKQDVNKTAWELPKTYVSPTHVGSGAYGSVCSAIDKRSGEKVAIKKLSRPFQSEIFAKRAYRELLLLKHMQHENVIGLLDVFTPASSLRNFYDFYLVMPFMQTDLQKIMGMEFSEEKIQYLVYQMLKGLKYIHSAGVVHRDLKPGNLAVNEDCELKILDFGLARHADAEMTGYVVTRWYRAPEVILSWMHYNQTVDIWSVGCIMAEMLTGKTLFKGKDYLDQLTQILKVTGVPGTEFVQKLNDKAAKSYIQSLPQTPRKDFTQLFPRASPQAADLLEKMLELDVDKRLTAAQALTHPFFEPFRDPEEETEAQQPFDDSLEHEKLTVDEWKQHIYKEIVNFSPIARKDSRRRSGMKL
# MAPKAP-K2, sequence (P49137 whole entry): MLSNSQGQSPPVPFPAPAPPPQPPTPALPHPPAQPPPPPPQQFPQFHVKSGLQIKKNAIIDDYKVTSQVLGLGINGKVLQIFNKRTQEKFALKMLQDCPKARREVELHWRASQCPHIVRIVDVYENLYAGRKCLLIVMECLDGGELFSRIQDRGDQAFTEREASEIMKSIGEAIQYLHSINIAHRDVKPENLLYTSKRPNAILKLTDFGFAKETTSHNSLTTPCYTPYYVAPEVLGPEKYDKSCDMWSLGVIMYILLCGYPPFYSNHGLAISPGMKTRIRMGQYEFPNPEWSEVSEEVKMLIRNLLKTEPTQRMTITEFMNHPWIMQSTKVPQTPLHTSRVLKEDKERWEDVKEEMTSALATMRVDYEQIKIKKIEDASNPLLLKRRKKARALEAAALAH
smiles,measurement,setting,value
"CN1C/C=C/CCOc2cccc(c2)-c2ccnc(n2)Nc2cccc(c2)C1 [TG02, (16E)-14-methyl-20-oxa-5,7,14,27-tetraazatetracyclo[19.3.1.12,6.18,12]heptacosa-1(25),2(27),3,5,8(26),9,11,16,21,23-decaene]",K167 expression (proliferation marker),"[1]; 20 mg/kg, 2 cycles, vs vehicle",significantly reduced K167 expression
same,survival vs vehicle,[1]; 2 cycles,statistically significant increased median survival
same,survival vs vehicle,"[1]; 2 cycles, listed as TG02 obtained from Adastra Pharmaceuticals",extended survival
same,median survival,"[1]; TG02 20 mg/kg, 2 cycles of 5 days on 2 days off, vehicle 22.5 days",40 days
same,inhibition at 100 nm,[2],less than 50%
same,inhibition at 100 nm,[3],less than 50%
same,inhibition at 100 nm,[4],less than 50%
same,"cell viability, RT and TG02","[5]; 50 nM TG02 and 10 Gy of RT (2-Gy fractions over 5 days), Day 5, compared to RT or TG02 only",statistically significant reduction in cell viability
same,"cell viability, TG02 alone","[5]; 50 nM of TG02, Day 5, vs DMSO control",significantly reduced cell viability
same,inhibition at 100 nm,[6],less than 50%
same,inhibition at 100 nm,[7],less than 50%
same,ERK5 Thr218/Tyr220 phosphorylation (regulated by MEK5),[8],did not inhibit
same,ERK5 auto-phosphorylation and ERK5 activity sites (Ser731 and Thr733),[8],confirmed to inhibit
same,inhibition at 100 nm,[9],less than 50%
same,phospho MYC (S62) and total MYC,[10],reduced phospho and total MYC
same,inhibition at 100 nm,[11],less than 50%
same,inhibition at 100 nm,[12],less than 50%
same,inhibition at 100 nm,[13],less than 50%
same,pIC50,[14],7.25
same,inhibition at 100 nm,[15],less than 50%
same,inhibition at 100 nm,[16],less than 50%
same,apoptosis (Annexin-PI),"[17]; 48 h, vs DMSO vehicle control",induction of apoptosis; also recorded: increased populations in early apoptosis
same,"viable cells (Annexin negative, PI negative)","[17]; 48 h, vs DMSO vehicle control",decreased viable cells
same,cell growth,[17]; vs vehicle,diminished cell growth
